Where “and” joins values, the source holds several entries; their conditions need not be identical. Identical values can stand only once. Counter-ions that a name gives are not always drawn. Like-named read-outs stand apart in the source and are kept apart here.
Legend:
[1] = molecular target: T1, cloned human μ opioid receptor (Homo sapiens, UniProt P35372); assay: Receptor binding, [3H]diprenorphine displacement, mu opioid receptor; settings: for Ki: [3H]diprenorphine, cloned human mu opioid receptor; for DOR/MOR Ratio: ratio of DOR Ki to MOR Ki
T1 construct: expressed in transfected cells
T1 sequence (P35372 whole entry): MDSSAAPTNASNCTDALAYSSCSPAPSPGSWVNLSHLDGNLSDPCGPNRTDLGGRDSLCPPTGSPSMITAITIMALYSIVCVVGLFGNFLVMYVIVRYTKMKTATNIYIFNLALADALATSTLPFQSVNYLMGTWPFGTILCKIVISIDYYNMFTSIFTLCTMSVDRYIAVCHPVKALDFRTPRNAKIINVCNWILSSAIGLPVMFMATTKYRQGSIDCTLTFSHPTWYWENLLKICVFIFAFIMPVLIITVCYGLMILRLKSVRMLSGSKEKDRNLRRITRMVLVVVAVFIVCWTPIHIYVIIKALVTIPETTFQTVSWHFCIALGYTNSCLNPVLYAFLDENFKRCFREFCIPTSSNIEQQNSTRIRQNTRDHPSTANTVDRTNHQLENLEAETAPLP

[2] = molecular target: T2, cloned human δ opioid receptor (Homo sapiens, UniProt P41143); assay: Receptor binding, [3H]diprenorphine displacement, delta opioid receptor
T2 construct: expressed in transfected cells
T2 sequence (P41143 whole entry): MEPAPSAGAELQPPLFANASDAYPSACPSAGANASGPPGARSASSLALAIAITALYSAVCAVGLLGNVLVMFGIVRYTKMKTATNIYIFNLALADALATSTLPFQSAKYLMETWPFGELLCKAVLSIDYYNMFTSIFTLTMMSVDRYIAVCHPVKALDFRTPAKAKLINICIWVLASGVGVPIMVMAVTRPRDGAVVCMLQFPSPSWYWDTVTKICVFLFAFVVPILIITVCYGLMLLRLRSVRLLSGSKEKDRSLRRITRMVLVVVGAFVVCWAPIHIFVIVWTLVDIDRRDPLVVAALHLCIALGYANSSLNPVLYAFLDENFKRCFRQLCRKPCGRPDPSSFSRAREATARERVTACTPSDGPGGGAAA

[3] = Rat PK; assay type: in vivo; settings: rats; for bioavailability: male, Sprague-Dawley, rat, plasma, read-out: oral bioavailability (F)
Method: Jugular vein cannulated (JVC) male Sprague-Dawley (SD) rats (Charles River, Raleigh, N.C.) were housed individually in polycarbonate cages on alpha-dri bedding in an environmentally controlled room with a 12 hour light-dark cycle. Rats were allowed to acclimate for 3-5 days prior to the study. Animals were fasted overnight prior to drug administration and were fed after the 4 h blood collection.
The suspension used for PO administration was prepared at a nominal concentration of 2 mg/mL of test agent in 0.5% methylcellulose with 0.1% Tween®80.
Two groups of three JVC rats each received a single PO dose of 10 mg/kg. The PO dose was administered by oral gavage in a dosing volume of 5 mL/kg. Blood samples (0.6 mL) were collected via jugular vein cannula at predose, 15 and 30 minutes and 1, 2, 4, 6, 8 and 24 h postdose in EDTA-containing tubes. Plasma was obtained by centrifugation at 3000 rpm for 15 minutes. The samples were stored at −20° C. until analysis.
Plasma aliquots were deproteinized with internal standard solution in acetonitrile. The samples were vortexed, centrifuged and an aliquot of the supernatant was mixed with water. The diluted aliquot was then analyzed.
(§1) Plasma concentrations were determined by high performance liquid chromatography with tandem mass spectrometric detection (LC/MS/MS) after protein precipitation.
Model-independent analyses were performed to evaluate the pharmacokinetics. The area under the concentration-time curve (AUC) and the area under the first moment curve (AUMC) were calculated from zero to 6 or 8 hours post-dose using the linear trapezoidal method with extrapolation to infinity. The terminal elimination rate constant (kel) and half-life (t1/2) were calculated by linear least-squares regression of log-transformed concentration-time data. Systemic plasma clearance (CLs) was computed from Dose/AUC. Volume of distribution at steady state (Vdss) was calculated from Dose·AUMC/AUC^2. WinNonlin® Professional software (Pharsight Corporation) was used to generate all pharmacokinetic data.

[4] = tested on: morphine-slowed gastrointestinal transit (GIT); assay: Mouse Gastrointestinal Transit (GIT) Assay, antagonism of the anti-transit effect of morphine; assay type: in vivo, mice; settings: for recovery of the pre-opioid treatment efficacy of GIT: one hour after a 3 mg/kg dose, morphine 3 mg/kg s.c.
Method: Male Swiss-Webster mice (25-30 g) obtained from Ace Animals (Boyertown, Pa.) were used for all experiments. Mice were housed 4/cage in polycarbonate cages with food and water available ad libitum. Mice were on a 12 hours light:dark schedule with lights on at 6:30 a.m. All experiments were performed during the light cycle. Mice were fasted the night before the experiment, with water available ad libitum.
Compounds were administered in a volume of 0.1 ml/10 g of body weight. Morphine (3 mg/kg) or vehicle (0.9% saline) was administered s.c. 35 min to induce slowed GIT, prior to determination of GIT. Ten minutes after the morphine treatment, mice were administered 0.2 ml of a charcoal meal orally. The charcoal meal consisted of a slurry of charcoal, flour, and water in the following ratio (1:2:8, w:w:v). Twenty-five minutes after receiving the charcoal meal, the mice were euthanized with CO2 and GIT was determined.
GIT is expressed as % GIT by the following formula: […]
For each test agent, a value for % Antagonism (% A) was determined for the 2 and 6 hr antagonist pretreatment. Using the mean % GIT for each treatment group, % A was calculated using the following formula: […]

[5] = Dog PK; assay type: in vivo; settings: for AUC0-t: 6 mg/kg, individual dogs; for bioavailability: single PO dose of 6 mg/kg, read-out: oral bioavailability (F); for AUC: mean of three dogs
Method: The PO dose formulations were prepared on the day of dosing by dissolving 33.16 mg of test material in 60 mL of sterile water to achieve a concentration of 0.5526 mg/mL total compound (0.5 mg/mL test compound). The dosing solution was vortexed to ensure homogeneity and dissolution.
The dose formulation was administered via oral gavage per facility SOPs. Each dog received a single PO dose of 6 mg/kg.
(§2) All blood samples were collected from a peripheral vessel. Approximately 0.3 mL blood was collected at each time point. All blood samples were placed on wet ice until processed for plasma.
Blood samples were processed for plasma by centrifugation at approximately 5° C. Plasma samples were stored in polypropylene tubes, quick frozen over dry ice and kept at −70±10° C. until LC/MSMS analysis.
as §1
(§3) Plasma concentration versus time data was analyzed by non-compartmental approaches using the WinNonlin software program (version 5.0.1, Pharsight, Mountain View, Calif.).

[6] = Primate PK; assay type: in vivo, monkey; settings: for AUC0-t / Cmax: 1 mg/kg; for bioavailability: single PO dose of 1 mg/kg, read-out: oral bioavailability (F)
Method: The dose formulations were prepared on the day of dosing by dissolving 33.16 mg of test material in 60 mL of sterile water to achieve a concentration of 0.5526 mg/mL total compound (0.5 mg/mL test compound). The dosing solution was vortexed to ensure homogeneity and dissolution.
The dose formulation was administered via oral gavage per facility SOPs. Each monkey received a single PO dose of 1 mg/kg as a 0.5% MC suspension.
as §2
Blood samples were processed for plasma by centrifugation at approximately 5° C. Plasma samples were be stored in polypropylene tubes, quick frozen over dry ice and kept at −70±10° C. until LC/MSMS analysis.
as §1, §3

[7] = molecular target: T3, cloned human κ opioid receptor (Homo sapiens, UniProt P41145); assay: Receptor binding, [3H]diprenorphine displacement, kappa opioid receptor
T3 construct: expressed in transfected cells
T3 sequence (P41145 whole entry): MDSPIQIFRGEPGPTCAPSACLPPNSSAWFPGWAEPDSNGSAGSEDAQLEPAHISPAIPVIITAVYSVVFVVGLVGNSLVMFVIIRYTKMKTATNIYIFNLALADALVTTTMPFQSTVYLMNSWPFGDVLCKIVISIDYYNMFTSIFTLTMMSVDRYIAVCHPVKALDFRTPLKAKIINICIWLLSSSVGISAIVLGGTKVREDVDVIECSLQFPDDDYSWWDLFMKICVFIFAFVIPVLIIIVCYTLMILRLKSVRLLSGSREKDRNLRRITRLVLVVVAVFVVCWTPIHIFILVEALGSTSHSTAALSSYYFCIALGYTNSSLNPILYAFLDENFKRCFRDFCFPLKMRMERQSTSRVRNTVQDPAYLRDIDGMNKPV

[8] = individual monkeys, PO 1 mg/kg, lithium salt
[9] = [3H]diprenorphine, cloned human kappa opioid receptor, read-out: KOR Ki

C[C@H]1CN(C[C@H](Cc2ccccc2)C(=O)O)CC[C@@]1(C)c1cccc(C(N)=O)c1 [Example 4, (S)-2-Benzyl-3-((3R,4R)-4-(3-carbamoylphenyl)-3,4-dimethylpiperidin-1-yl)propanoic acid]
Ki ([1]; MOR Ki): 14 nM
DOR/MOR Ratio [1]: 33
Ki ([2]; DOR Ki): 460 nM

C[C@H]1CN(C[C@H](Cc2ccccc2)C(=O)O)CC[C@@]1(C)c1cccc(C(N)=O)c1.O=C(O)C(F)(F)F [Example 3, (S)-2-benzyl-3-((3R,4R)-4-(3-carbamoylphenyl)-3,4-dimethylpiperidin-1-yl)propanoic acid, trifluoroacetate salt]
Ki ([1]; MOR Ki): 12.4 nM
DOR/MOR Ratio [1]: 32
Ki ([2]; DOR Ki): 397 nM
bioavailability ([3]; single PO dose of 10 mg/kg): 8%
improvement in oral bioavailability as compared to Example C-2 ([3]; PO 10 mg/kg): approximately 8 fold

C[C@H]1CN(C[C@H](Cc2ccccc2)C(=O)[O-])CC[C@@]1(C)c1cccc(C(N)=O)c1.[Li+] [Example 1, (S)-2-benzyl-3-((3R,4R)-4-(3-carbamoylphenyl)-3,4-dimethylpiperidin-1-yl)propanoic acid, lithium salt]
Ki ([1]; MOR Ki): 11.2 nM
DOR/MOR Ratio [1]: 30
Ki ([2]; DOR Ki): 340 nM
AUC values (h * percent antagonism (0-6 h)) ([4]; mice, 3 mg/kg orally, 0-6 h): 408.8 h * percent antagonism
recovery of the pre-opioid treatment efficacy of GIT ([4]; mice): ~90%
AUC value (GIT antagonism) times greater than that of Example C-2 ([4]; mouse, in vivo): 2.1 times
AUC0-t ([5]; dog, in vivo, po, PO 6 mg/kg, read-out: AUC0-t): 183 ng·h/mL
bioavailability ([5]; dog, in vivo, dogs): 30%
AUC ([5]; dog, in vivo, PO 6 mg/kg): 259 ± 81 ng·h/mL
improvement in the mean AUC value as compared to Example C-3 ([5]; dogs, PO 6 mg/kg): approximately 4 fold
increase in mean concentration in plasma as compared to C-3 ([5]; dogs, PO 6 mg/kg): approximately 3 fold
AUC0-t ([5]; PO 6 mg/kg, lithium salt): 250 ng·h/mL and 344 ng·h/mL
AUC0-t [6, 8]: 87 ng·h/mL and 132 ng·h/mL
Cmax [6, 8]: 29.5 ng/mL and 20.8 ng/mL and 44.6 ng/mL
AUC0-t ([6]; monkey, in vivo, po, individual monkeys, PO 1 mg/kg, read-out: AUC0-t): 103 ng·h/mL
Cmax ([6]; monkey, in vivo, po, mean of three monkeys, PO 1 mg/kg, read-out: Mean Cmax ± SD): 32 ± 12 ng/mL
Cmax ([6]; monkey, in vivo, po, monkeys, PO 1 mg/kg, mean ± SD, text of b284, read-out: Cmax): 32 ± 12 ng/mL
bioavailability ([6]; monkey, in vivo, monkeys): 10%
fold higher maximum plasma concentration (Cmax) as compared to Example C-3 ([6]; monkeys, PO 1 mg/kg): 18.3 fold

C[C@H]1CN(C[C@H](Cc2ccccc2)C(=O)[O-])CC[C@@]1(C)c1cccc(C(N)=O)c1.[Na+] [Example 2, (S)-2-benzyl-3-((3R,4R)-4-(3-carbamoylphenyl)-3,4-dimethylpiperidin-1-yl)propanoic acid, sodium salt]
Ki ([1]; MOR Ki): 17.3 nM
DOR/MOR Ratio [1]: 18
Ki ([2]; DOR Ki): 308 nM
bioavailability ([3]; single PO dose of 10 mg/kg): 11%

C[C@H]1CN(C[C@H](Cc2ccccc2)C(=O)O)CC[C@@]1(C)c1cccc(C(N)=O)c1 [Example 6, (S)-2-benzyl-3-((3R,4R)-4-(3-carbamoylphenyl)-3,4-dimethylpiperidin-1-yl)propanoic acid, succinic acid salt]
Ki ([1]; MOR Ki): 18.1 nM
Ki ([2]; DOR Ki): 527 nM

C[C@H]1CN(C[C@H](Cc2ccccc2)C(=O)O)CC[C@@]1(C)c1cccc(C(N)=O)c1 [Example 5, (S)-2-benzyl-3-((3R,4R)-4-(3-carbamoylphenyl)-3,4-dimethylpiperidin-1-yl)propanoic acid, oxalic acid salt]
Ki ([1]; MOR Ki): 16.9 nM
Ki ([2]; DOR Ki): 310 nM
Ki [7]: > 10000 nM

C[C@H]1CN(C[C@@H](Cc2ccccc2)C(=O)NCC(=O)O)CC[C@@]1(C)c1cccc(C(N)=O)c1.O=C(O)C(F)(F)F [Example C-2, [[2(R)-[[4(R)-(3-Amidophenyl)-3(R),4-dimethyl-1-piperidinyl]methyl]-1-oxo-3-phenylpropyl]amino]acetic acid, trifluoromethylacetate salt, reference compound]
times more potent than Example 1 as an MOR antagonist in the opioid receptor binding assay ([1]; C-2 versus Example 1, Table I): 4.3 times
Ki ([1]; read-out: MOR Ki): 2.6 nM
DOR/MOR Ratio [1]: 33
Ki ([2]; read-out: DOR Ki): 85 nM
Ki [7, 9]: 660 nM
recovery of the pre-opioid treatment efficacy of GIT ([4]; mice): 50%
AUC values (h * percent antagonism (0-6 h)) ([4]; mouse, in vivo, po, 3 mg/kg): 191.5 h * percent antagonism
oral bioavailability (F) ([3]; single PO dose of 10 mg/kg): ~1%

CC1CN(CC(Cc2ccccc2)C(=O)NCC(=O)O)CCC1(C)c1cccc(C(N)=O)c1 [Example C-3, [[2(R)-[[4(R)-(3-Amidophenyl)-3(R),4-dimethyl-1-piperidinyl]methyl]-1-oxo-3-phenylpropyl]amino]acetic acid, sodium salt, reference compound]
Ki ([1]; MOR Ki): 2.9 nM
DOR/MOR Ratio [1]: 34
Ki ([2]; DOR Ki): 98 nM
Ki [7, 9]: 930 nM
AUC0-t ([5]; dog, plasma, po, PO 6 mg/kg, read-out: AUC0-t): 81 ng·h/mL
bioavailability ([5]; dog, plasma, dogs): 11%
AUC ([5]; dog, plasma, PO 6 mg/kg): 63 ± 16 ng·h/mL
AUC0-t ([5]; PO 6 mg/kg, sodium salt): 54 ng·h/mL and 53 ng·h/mL
Cmax ([6]; individual monkeys, PO 1 mg/kg, sodium salt): 1.81 ng/mL and 1.74 ng/mL
Cmax ([6]; monkey, plasma, po, individual monkeys, PO 1 mg/kg, read-out: Cmax): 1.7 ng/mL
Cmax ([6]; monkey, plasma, po, mean of three monkeys, PO 1 mg/kg, read-out: Mean Cmax ± SD): 1.75 ± 0.06 ng/mL
bioavailability ([6]; monkey, plasma, monkeys): < 2%
